The source of these data is US12522582B2 (Gilead Sciences, Inc., priority 2022, dated 2026).

One may read the EC50 as the concentration at which the effect is half-maximal. One may read the CC50 as the concentration that lowers cell viability or growth by half.

The test system of data set [1] is human cryopreserved hepatocytes. The experiment in a line: Stability Assay in Cryopreserved Hepatocytes (human). Particulars: 1 μM, calculated from half-life using the well-stirred model. It is filed as in vitro ADME. As to the method:
Test compound was incubated at 1 μM with either rat or human cryopreserved hepatocytes (BioIVT, Westbury, NY) up to 6 hours at 37° C. in a 24-well plate format (1×10^6 cells/mL per well). At specified time points, samples were transferred to a 96-well plate and quenched with 2 volumes of a solution containing 90% acetonitrile 10% methanol 0.1% formic acid and internal standard. Sample plate was centrifuged at 3200 rpm for 15 min and supernatants transferred to a new plate containing half volume of water. The resulting solution was analyzed by LC-MS/MS. Data (analyte to internal standard peak area ratio) was plotted on a semi-log scale and fitted using an exponential fit. Assuming first order kinetics, the half-life (t1/2) and rate of metabolism were determined. Predicted hepatic clearance was calculated from the half-life using the well-stirred model.

Data set [2] has as its system HSV-2 virus (MS strain). Briefly: HSV-2 Cellomics Assay (immunofluorescence of HSV protein gD in infected ARPE-19 cells).
The test system of data set [3] is HSV-2 virus (MS strain). The experiment in a line: HSV qPCR Assay (HSV replication in ARPE-19 cells). For orientation: In qPCR the cycle at which signal appears reflects the starting amount.
Data set [4] is described as follows: MT-4 CC50 Assay (CellTiter Glo). The note with it: human, MT-4 cells, luminescence, read-out: CC50-MT4. It is filed as cell-based. How it is done: Compounds were tested in 384-well plates: 18 compounds in duplex. Compounds were diluted in 7 points, 3-fold with DMSO by Bravo. Assay plate, which contains 20 uL medium with compounds, was seeded 2000 MT-4 cells in 20 uL/well by Multi-drop to start the assay. The plate was incubated at 37° C. for 5 days. On 6th day, the CellTiter Glo 40 uL was added in each well. Luminescence was read by Victor II.
(In general: ATP-based viability assays read luminescence as a measure of living cells.)

Where [5] appears, read: Human alphaherpesvirus 2, ARPE-19, 16 h, read-out: EC50-HSV2-FBS.
Where [6] appears, read: Human alphaherpesvirus 2, ARPE-19, read-out: EC50-HSV2-qPCR.
Setting [7] is: Human alphaherpesvirus 2, ARPE-19, 16 h, read-out: EC50-HSV2-10% Human Serum.
Where [8] appears, read: Human alphaherpesvirus 2, ARPE-19, read-out: EC50 in HSV qPCR assay.

Structures are written as SMILES.

As to `C[C@H]1Cc2ccc(S(N)(=O)=O)cc2N1C(=O)[C@@H]1Cc2ccc(-c3ccccn3)cc2C1` (single isomer, unassigned) [Example 16], the “Predicted human hepatic clearance” value in data set [1] is 2 mL/min/kg. Besides, the EC50 with HSV-2 virus (MS strain) [2] (setting [5]) came to 775 nM.

As to `CC1Cc2ccc(S(N)(=O)=O)cc2N1C(=O)C1Cc2ccc(-c3ccccn3)cc2C1` (stereo not shown) [Example 3], the EC50 was 18.5 nM in the data set with HSV-2 virus (MS strain) [3] (setting [6]), ≥ 25000 nM in the data set with HSV-2 virus (MS strain) [2] (setting [7]) and 129 nM in the data set with HSV-2 virus (MS strain) [2] (setting [5]).

On to `NS(=O)(=O)c1cc2c(cc1F)CCN2C(=O)[C@@H]1Cc2ccc(-c3ccccn3)cc2C1` [Example 28], for which the “Predicted human hepatic clearance” value in data set [1] was 3.67 mL/min/kg. In data set [4], the CC50 at 5 days was ≥ 50000 nM. The results for the EC50 with HSV-2 virus (MS strain) [2] (setting [7]) and in the data set on HSV-2 virus (MS strain) [2] (setting [5]) were 8440 nM and 6 nM, respectively.

Consider `C[C@H]1Cc2cc(F)c(S(N)(=O)=O)cc2N1C(=O)[C@@H]1Cc2ccc(-c3ccccn3)cc2C1` [Example 34], for which the “Predicted human hepatic clearance” value in data set [1] is 3.33 mL/min/kg. In addition, the results for the EC50 with HSV-2 virus (MS strain) [2] (setting [7]) and with HSV-2 virus (MS strain) [2] (setting [5]) were 1570 nM and 158 nM, respectively.

Regarding `NS(=O)(=O)c1cc2c(cc1F)CCN2C(=O)[C@@H]1Cc2ccc(-c3cc(F)ccc3F)cc2C1` [Example 58, (R)-1-(5-(2,5-difluorophenyl)-2,3-dihydro-1H-indene-2-carbonyl)-5-fluoroindoline-6-sulfonamide], in data set [1], the “Predicted human hepatic clearance” value is 5.33 mL/min/kg. Also, the CC50 at 5 days in data set [4] was ≥ 10000 nM. For the same molecule, the EC50 with HSV-2 virus (MS strain) [2] (setting [7]) was determined as 4310 nM; in the data set with HSV-2 virus (MS strain) [2] (setting [5]) it was 12 nM.

As for `C[C@@H]1Cc2cc(Cl)c(S(N)(=O)=O)cc2N1C(=O)[C@@H]1Cc2ccc(-c3ccccn3)cc2C1` [Example 60, (R)-5-chloro-2-methyl-1-((R)-5-(pyridin-2-yl)-2,3-dihydro-1H-indene-2-carbonyl)indoline-6-sulfonamide], the “Predicted human hepatic clearance” value in data set [1] was 2.83 mL/min/kg. For the same molecule, in data set [4], the CC50 at 5 days was ≥ 10000 nM. For the same molecule, the EC50 in the data set with HSV-2 virus (MS strain) [2] (setting [7]) was 434 nM; in the data set with HSV-2 virus (MS strain) [2] (setting [5]), 13 nM.

As to `C[C@@H]1Cc2cc(F)c(S(N)(=O)=O)cc2N1C(=O)[C@@H]1Cc2ccc(-c3cc(F)ccc3F)cc2C1` [Example 61, (R)-1-((R)-5-(2,5-difluorophenyl)-2,3-dihydro-1H-indene-2-carbonyl)-5-fluoro-2-methylindoline-6-sulfonamide], the “Predicted human hepatic clearance” value in data set [1] was 2.5 mL/min/kg. In data set [4], the CC50 at 5 days is ≥ 10000 nM. The EC50 is 169 nM in the data set with HSV-2 virus (MS strain) [2] (setting [7]) and 28 nM in the data set on HSV-2 virus (MS strain) [2] (setting [5]).

With `NS(=O)(=O)c1ccc2c(c1)N(C(=O)C1Cc3ccc(-c4ccccc4F)cc3C1)CC2` (stereo not shown) [Example 70, 1-(5-(2-fluorophenyl)-2,3-dihydro-1H-indene-2-carbonyl) indoline-6-sulfonamide], the EC50 was 25.8 nM in the data set with HSV-2 virus (MS strain) [3] (setting [6]), ≥ 25000 nM in the data set on HSV-2 virus (MS strain) [2] (setting [7]) and 91 nM in the data set with HSV-2 virus (MS strain) [2] (setting [5]).

Take `NS(=O)(=O)c1ccc2c(c1)N(C(=O)[C@@H]1Cc3ccc(-c4cnccn4)cc3C1)CC2` [Example 87, (R)-1-(5-(pyrazin-2-yl)-2,3-dihydro-1H-indene-2-carbonyl)indoline-6-sulfonamide]: the “Predicted human hepatic clearance” value in data set [1] is 5.17 mL/min/kg. Moreover, the CC50 at 5 days in data set [4] was found to be 306 nM. Besides, the EC50 with HSV-2 virus (MS strain) [2] (setting [7]) came out at 3280 nM; in the data set on HSV-2 virus (MS strain) [2] (setting [5]), 13 nM.

As to `NS(=O)(=O)c1ccc2c(c1)N(C(=O)[C@@H]1Cc3ccc(-c4ncccc4F)cc3C1)CC2` [Example 89, (R)-1-(5-(3-fluoropyridin-2-yl)-2,3-dihydro-1H-indene-2-carbonyl)indoline-6-sulfonamide], the “Predicted human hepatic clearance” value in data set [1] was 0.83 mL/min/kg. Further, the CC50 at 5 days in data set [4] was found to be 308 nM. Further, the EC50 in the data set with HSV-2 virus (MS strain) [2] (setting [7]) stood at 1960 nM; in the data set with HSV-2 virus (MS strain) [2] (setting [5]), 23 nM.

As to `CC1CN(C(=O)C2Cc3ccc(-c4ccccn4)cc3C2)c2cc(S(N)(=O)=O)ccc21` (stereo not shown) [Example 106, 3-Methyl-1-[5-(2-pyridyl)indane-2-carbonyl]indoline-6-sulfonamide], the results for the EC50 in the data set on HSV-2 virus (MS strain) [3] (setting [6]) and in the data set with HSV-2 virus (MS strain) [2] (setting [5]) were 10.9 nM and 81 nM, respectively.

With `NS(=O)(=O)c1cc2c(cc1F)CCN2C(=O)C1Cc2ccc(-c3ccccn3)cc2O1` (stereo not shown) [Example 116, 5-fluoro-1-(6-(pyridin-2-yl)-2,3-dihydrobenzofuran-2-carbonyl)indoline-6-sulfonamide], the “Predicted human hepatic clearance” value in data set [1] was 0.83 mL/min/kg. For the same molecule, the EC50 with HSV-2 virus (MS strain) [2] (setting [7]) turned out to be 489 nM; in the data set with HSV-2 virus (MS strain) [2] (setting [5]) it was 42 nM.

Consider `NS(=O)(=O)c1cc2c(cc1F)C[C@@H](CF)N2C(=O)[C@@H]1Cc2ccc(-c3ccccn3)cc2C1` [Example 125, (S)-5-fluoro-2-(fluoromethyl)-1-((R)-5-(pyridin-2-yl)-2,3-dihydro-1H-indene-2-carbonyl)indoline-6-sulfonamide], for which the figures for the EC50 with HSV-2 virus (MS strain) [3] (setting [6]), in the data set with HSV-2 virus (MS strain) [2] (setting [7]) and in the data set on HSV-2 virus (MS strain) [2] (setting [5]) were 0.56 nM, 70.2 nM and 11.1 nM, respectively. Further, the “Predicted human hepatic clearance” value in data set [1] is 1.03 mL/min/kg.

Consider `NS(=O)(=O)c1cc2c(cc1F)C[C@H](CF)N2C(=O)[C@@H]1Cc2ccc(-c3ccccn3)cc2C1` [Example 126, (R)-5-fluoro-2-(fluoromethyl)-1-((R)-5-(pyridin-2-yl)-2,3-dihydro-1H-indene-2-carbonyl)indoline-6-sulfonamide], for which the values for the EC50 in the data set on HSV-2 virus (MS strain) [3] (setting [6]), in the data set with HSV-2 virus (MS strain) [2] (setting [7]) and in the data set with HSV-2 virus (MS strain) [2] (setting [5]) were 56.7 nM, ≥ 10000 nM and ≥ 1000 nM, respectively. Further, the “Predicted human hepatic clearance” value in data set [1] is 2.67 mL/min/kg.

Consider `NS(=O)(=O)c1ccc2c(c1)N(C(=O)[C@@H]1Cc3ccc(-c4ccncn4)cc3C1)CC2` [Example 129, (R)-1-(5-(pyrimidin-4-yl)-2,3-dihydro-1H-indene-2-carbonyl)indoline-6-sulfonamide], for which the “Predicted human hepatic clearance” value in data set [1] was 17.5 mL/min/kg. Besides, the EC50 came to 7610 nM with HSV-2 virus (MS strain) [2] (setting [7]) and 231 nM in the data set with HSV-2 virus (MS strain) [2] (setting [5]).

Regarding `NS(=O)(=O)c1ccc2c(c1)N(C(=O)[C@@H]1Cc3ccc(-c4cccnc4)cc3C1)CC2` [Example 130, (R)-1-(5-(pyridin-3-yl)-2,3-dihydro-1H-indene-2-carbonyl)indoline-6-sulfonamide], in data set [1], the “Predicted human hepatic clearance” value was 7.5 mL/min/kg. Further, the EC50 in the data set on HSV-2 virus (MS strain) [2] (setting [7]) is ≥ 10000 nM; in the data set with HSV-2 virus (MS strain) [2] (setting [5]), 110 nM.

As for `NS(=O)(=O)c1ccc2c(c1)N(C(=O)[C@@H]1Cc3ccc(-c4ccncc4)cc3C1)CC2` [Example 131, (R)-1-(5-(pyridin-4-yl)-2,3-dihydro-1H-indene-2-carbonyl)indoline-6-sulfonamide], the “Predicted human hepatic clearance” value in data set [1] is 9.5 mL/min/kg. For the same molecule, the figures for the EC50 with HSV-2 virus (MS strain) [2] (setting [7]) and in the data set on HSV-2 virus (MS strain) [2] (setting [5]) were ≥ 10000 nM and 753 nM, respectively.

As for `C[C@H]1Cc2cc(F)c(S(N)(=O)=O)cc2N1C(=O)[C@H]1Cc2ccc(-c3ccccn3)cc2C1` [Example 140, (S)-5-fluoro-2-methyl-1-((S)-5-(pyridin-2-yl)-2,3-dihydro-1H-indene-2-carbonyl)indoline-6-sulfonamide], the “Predicted human hepatic clearance” value in data set [1] is 6 mL/min/kg. In addition, the EC50 with HSV-2 virus (MS strain) [2] (setting [7]) and in the data set with HSV-2 virus (MS strain) [2] (setting [5]) was ≥ 10000 nM each time.

As to `Nc1nc2c(ncn2COCCO)c(=O)[nH]1` [acyclovir, reference compound], the EC50 in the data set with HSV-2 virus (MS strain) [3] (setting [8]) stood at 1250 nM.

Turning to `Cc1cccc(C)c1N(CC(=O)Nc1ccc(-c2ncon2)cc1)C(=O)C1CCS(=O)(=O)CC1` [amenamevir, reference compound], the half-maximal effective concentration (EC50) with HSV-2 virus (MS strain) [3] (setting [8]) worked out at 14 nM.

Consider `Cc1nc(N(C)C(=O)Cc2ccc(-c3ccccn3)cc2)sc1S(N)(=O)=O` [pritelivir, reference compound], for which the EC50 in the data set with HSV-2 virus (MS strain) [3] (setting [8]) amounted to 14 nM; in the data set on HSV-2 virus (MS strain) [2] (Human alphaherpesvirus 2, ARPE-19, read-out: EC50 in HSV-2 Cellomics assay) it was 150 nM.
